This note sets out measurements from publication PMC4979527, “Post-translational allosteric activation of the P2X7 receptor through glycosaminoglycan chains of CD44 proteoglycans” (Cell Death Discovery, 2015).

Series [1] addresses T1, P2X7 receptor (Cricetulus griseus, UniProt A0A9J7FWH6).
T1 sequence (A0A9J7FWH6 1-593): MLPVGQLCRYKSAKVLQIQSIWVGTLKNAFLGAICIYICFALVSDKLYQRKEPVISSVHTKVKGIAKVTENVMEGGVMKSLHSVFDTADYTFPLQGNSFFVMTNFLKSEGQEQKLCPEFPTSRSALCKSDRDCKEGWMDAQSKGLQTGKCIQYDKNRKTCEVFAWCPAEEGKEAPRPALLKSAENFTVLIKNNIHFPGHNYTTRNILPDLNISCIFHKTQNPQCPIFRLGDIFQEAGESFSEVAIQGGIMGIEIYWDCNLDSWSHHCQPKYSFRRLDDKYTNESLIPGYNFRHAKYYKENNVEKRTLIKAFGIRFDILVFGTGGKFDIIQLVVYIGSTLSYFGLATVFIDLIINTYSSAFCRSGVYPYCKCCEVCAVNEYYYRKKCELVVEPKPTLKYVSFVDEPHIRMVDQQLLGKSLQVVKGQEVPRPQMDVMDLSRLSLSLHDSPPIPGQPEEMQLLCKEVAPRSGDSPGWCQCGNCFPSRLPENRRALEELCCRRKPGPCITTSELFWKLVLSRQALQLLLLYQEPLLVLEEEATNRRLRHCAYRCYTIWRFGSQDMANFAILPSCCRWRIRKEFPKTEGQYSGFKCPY
Briefly: Cytoplasmic Ca2+ influx (Fluo-4, Flex Station 3) in mutant CHO-745 cells defective in GAGs. The series is classed as cell-based, Chinese hamster. The settings on record: for Increase of Ca2+ response by heparin pre-treatment: heparin pre-incubation 5 min (10-100 μM). As for the experimental part: (§1) Cytoplasmic Ca^2+ influx, [Ca^2+]cyt, measurements were monitored through changes of the Fluo-4 fluorescence intensity in real time using the Flex Station 3 microplate reader system. CHO-K1 (●-●) and CHO-745 ([…]-[…]) cells were seeded onto black 96-well plates (10^4 cells/well). Then, the cells were incubated with Fluo-4 for 1 h at 37 °C. […] The data represent the mean±S.E.M. (N=6).
(§2) Subsequently, the cells were incubated with Fluo-4 Direct Calcium Assay reagent for 1 h at 37 °C, according to the manufacturer’s instructions. The samples were stimulated with different agonists, and the fluorescence was quantified using a Flex Station 3 microplate reader (Molecular Devices, Sunnyvale, CA, USA). The Fluo-4 was excited at 490 nm and the emission was detected at 525 nm.[57]

The target of series [2] is T1, P2X7 receptor. Briefly: Cytoplasmic Ca2+ influx (Fluo-4, Flex Station 3) in wild-type CHO-K1 cells. In kind it is cell-based, Chinese hamster. The settings on record: for Increase of Ca2+cyt response by heparin pre-treatment: heparin pre-incubation 5 min (10-100 μM). As for the experimental part:
as §1, §2

The next series relates to P2 receptors. The series is described as follows: Cytoplasmic Ca2+ influx (Fluo-4) in CHO cells, both lines. In kind it is cell-based, Chinese hamster. The settings on record: for Intracellular Ca2+ increase on agonist addition: CHO cells, concentration-response curves; for Modulation of BzATP-stimulated Ca2+ influx by divalent cation: high concentration of cation (10 mM MgCl2; Cu2+ vs 100 μM BzATP), CHO-K1 and CHO-745. As for the experimental part:
as §1, §2

In another series the test system is CHO-K1 and CHO-745 cells. Briefly: Cell viability (MTT) and cell death (annexin V-APC/7-AAD) assay. The series is classed as cell-based. The settings on record: 24 h; for Morphology of CHO cultures (phase contrast microscopy): 4 mM ATP or 1 mM BzATP; for Cell death (MTT assay): high concentration (ATP >1 mM, BzATP >500 μM), both lines. As for the experimental part:
The viability of CHO cell lines was determined using the MTT assay.[58] […] The medium was removed, 100 μl of MTT (1 mg/ml) was added to each well and the cells were incubated again at 37 °C for 4 h. The supernatant was removed and 200 μl/well of DMSO was added to solubilize the formazan crystals formed. The absorbance was read at 570 nm using a microplate reader, and the cell viability was determined using the standard reduction of the MTT. The results were expressed relative to control cell viability (100%).
Cell death was investigated using annexin V-APC/7-AAD double staining and was analyzed through flow cytometry.[57],[59] […] The suspensions were transferred to tubes, centrifuged and resuspended with annexin V-APC and 7-AAD according to the manufacturer’s instructions. The cells were incubated at room temperature for 30 min, and the viable, apoptotic or necrotic cell populations were evaluated through flow cytometry. The data were collected using a FACSCalibur flow cytometer (Becton–Dickinson) and CellQuest software (Becton–Dickinson), followed by analysis using FlowJo software (Tree Star). […] The results were calculated as the percentage of cell death compared with the control.

Series [3] addresses T1, P2X7 receptor. The settings on record: 4 mM ATP. As for the experimental part:
P2X7 pore formation was functionality examined in CHO cells by analyzing PI uptake using a FACSCalibur flow cytometer (Becton–Dickinson). The cells were seeded onto six-well plates (10^6 cells/well) and maintained for 48 h at 37 °C under an atmosphere of 5% (v/v) CO2. Subsequently, the cells were harvested using 10 mM EDTA/PBS and adjusted to a concentration of 10^6 cells per tube. The samples were incubated with 5 μM of PI at a final volume of 200 μl/well in fresh serum-free medium F12 for 15 min, followed by the addition of 4 mM ATP and incubation at 37 °C for 30, 60 and 120 min, respectively. The intensity of dye uptake was immediately determined. A total of 10 000 events were collected for each sample.[60],[61]

Setting [4] is: CHO-745, in presence of 10 mM Mg2+ (MgCl2).
Setting [5] is: CHO-K1, in presence of 10 mM Mg2+ (MgCl2).

“Also recorded” adds a separate entry of the source.

Regarding `Nc1ncnc2c1ncn2[C@@H]1O[C@H](COP(=O)(O)OP(=O)(O)OP(=O)(O)O)[C@@H](OC(=O)c2ccc(C(=O)c3ccccc3)cc2)[C@H]1O` (relative stereo) [BzATP+Mg^2+], at P2X7 receptor [1] (setting [4]), the Emax is 119±10 URF and the Hill coefficient is recorded as 2.8±0.3. Further, at P2X7 receptor [2] (setting [5]), the Emax is on record as 153±6 URF and the Hill coefficient was found to be 1.5±0.1.

Take `Nc1ncnc2c1ncn2[C@@H]1O[C@H](COP(=O)(O)OP(=O)(O)OP(=O)(O)O)[C@@H](OC(=O)c2ccc(C(=O)c3ccccc3)cc2)[C@H]1O` (relative stereo) [BzATP, 2′(3′)-O-(4-benzoylbenzoyl)adenosine 5′-triphosphate]: the Emax turned out to be 136±6 URF at P2X7 receptor [1] (CHO-745, Ca2+ influx); 119±10 URF on P2X7 receptor [1] (setting [4]); 275±8 URF on P2X7 receptor [2] (CHO-K1, Ca2+ influx); 153±6 URF at P2X7 receptor [2] (setting [5]). For the same compound, the Hill coefficient at P2X7 receptor [1] (CHO-745, Ca2+ influx) was 1.8±0.2; at P2X7 receptor [1] (setting [4]), 2.8±0.3; on P2X7 receptor [2] (CHO-K1, Ca2+ influx), 1.0±0.1. For the same compound, in the series on P2 receptors, the “Intracellular Ca2+ increase on agonist addition” value (shortened to “Intracellular Ca2+ increase”) is on record as “promoted Ca^2+ increase”. The “Morphology of CHO cultures (phase contrast microscopy)” value with CHO-K1 and CHO-745 cells was “increased morphological changes and cell detachment”. Further, the “Cell death (MTT assay)” value in the series on CHO-K1 and CHO-745 cells is recorded as “promoted cell death”.

For the compound `CSc1nc(N)c2ncn([C@@H]3O[C@H](COP(=O)(O)OP(=O)(O)OP(=O)(O)O)[C@@H](O)[C@H]3O)c2n1` [2-MeSATP, 2-(methylthio)adenosine 5′-triphosphate], the “Intracellular Ca2+ increase” value in the series on P2 receptors was “did not increase intracellular Ca^2+”.

In the case of `Nc1ncnc2c1ncn2[C@@H]1O[C@H](COP(=O)(O)OP(=O)(O)O)[C@@H](O)[C@H]1O` [ADP, adenosine 5′-diphosphate], the “Intracellular Ca2+ increase” value in the series with P2 receptors is reported as “promoted Ca^2+ increase”.

In the series with P2X7 receptor [1] (CHO-745, Ca2+ influx), `Nc1ncnc2c1ncn2[C@@H]1O[C@H](COP(=O)(O)OP(=O)(O)OP(=O)(O)O)[C@@H](O)[C@H]1O` [ATP, adenosine 5′-triphosphate] gave an Emax of 97±7 URF and a Hill coefficient of 2.0±0.3. In the series with P2 receptors, the “Intracellular Ca2+ increase” value is on record as “promoted Ca^2+ increase”. In the series on CHO-K1 and CHO-745 cells, the “Morphology of CHO cultures (phase contrast microscopy)” value is “increased morphological changes and cell detachment”; the “Cell death (MTT assay)” value is recorded as “promoted cell death”. In the series with P2X7 receptor [2] (CHO-K1, Ca2+ influx), this compound had an Emax of 258±10 URF and a Hill coefficient of 0.9±0.1. For the same compound, the “Sensitivity to PI accumulation, CHO-745 less sensitive than CHO-K1” value with P2X7 receptor [3] was determined as 2.5 fold. Further, the “Propidium iodide (PI) uptake” value on P2X7 receptor [3] (CHO cells, after 30 min at 37 °C) was “induced the time-dependent uptake of propidium iodide”.

For `[Cu+2]` [Cu^2+], the “Modulation of BzATP-stimulated Ca2+ influx by divalent cation” value with P2 receptors is “negatively modulated”.

On to `[Mg+2]` [Mg^2+], for which the “Modulation of BzATP-stimulated Ca2+ influx by divalent cation” value in the series on P2 receptors is given as “negatively modulated”.

As to `O=c1ccn([C@@H]2O[C@H](COP(=O)(O)OP(=O)(O)O)[C@@H](O)[C@H]2O)c(=O)[nH]1` [UDP, uridine 5′-diphosphate], the “Intracellular Ca2+ increase” value in the series on P2 receptors is recorded as “promoted Ca^2+ increase”.

Regarding `O=c1ccn([C@@H]2O[C@H](COP(=O)(O)OP(=O)(O)OP(=O)(O)O)[C@@H](O)[C@H]2O)c(=O)[nH]1` [UTP, uridine 5′-triphosphate], the “Intracellular Ca2+ increase” value in the series with P2 receptors was “promoted Ca^2+ increase”.

In the case of `[Na+].[O-][Cl+2]([O-])[O-]` [chlorate, sodium chlorate], on P2X7 receptor [1] (CHO-745, pre-treatment 20 or 50 mM sodium chlorate), the “Effect on P2X7 agonist response” value is “did not block the P2X7 agonist response”. For the same compound, at P2X7 receptor [2] (CHO-K1, pre-treatment 20 or 50 mM sodium chlorate, 24 h), the “Inhibition of total P2X7 agonist (ATP or BzATP) response” value is reported as ~ 35%.

In the case of `Nc1ncnc2c1ncn2[C@@H](C=O)O[C@@H](C=O)COP(=O)(O)OP(=O)(O)OP(=O)(O)O` [oxATP, adenosine 5′-triphosphate periodate oxidized], the “Effect of antagonist on BzATP-evoked Ca2+ influx” value is “abolished the effect of BzATP” on P2X7 receptor [1] (CHO-745, 300 μM oxATP, 100 μM BzATP) and “abolished the effect of BzATP” on P2X7 receptor [2] (CHO-K1, 300 μM oxATP, 100 μM BzATP).

On to `O=[N+]([O-])c1ccccc1O[C@@H]1OC[C@@H](O)[C@H](O)[C@H]1O` [xylosides, o-nitrophenyl-β-D-xylopyranoside], for which the “Effect on P2X7 agonist response” value at P2X7 receptor [1] (CHO-745, 2 mM xyloside pre-treatment) was “did not block the P2X7 agonist response”. Besides, on P2X7 receptor [2] (CHO-K1, 2 mM xyloside pre-treatment (120 h), 3 μM BzATP), the “Inhibition of response induced through BzATP-gated P2X7” value worked out at 82%. Besides, on P2X7 receptor [2] (CHO-K1, 2 mM xyloside pre-treatment (120 h), 10 μM ATP), the “Inhibition of response induced through ATP-gated P2X7” value is listed as 55%.

For `Nc1ncnc2c1ncn2C1OC(COP(=O)(O)CP(=O)(O)OP(=O)(O)O)C(O)C1O` (stereo not drawn) [αβ-MeATP, α,β-methyleneadenosine 5′-triphosphate], the “Intracellular Ca2+ increase” value with P2 receptors was “did not increase intracellular Ca^2+”.

Consider `Nc1ncnc2c1ncn2C1OC(COP(=O)(O)OP(=O)(O)CP(=O)(O)O)C(O)C1O` (stereo not drawn) [βγ-MeATP, β,γ-methyleneadenosine 5′-triphosphate], for which, in the series on P2 receptors, the “Intracellular Ca2+ increase” value is reported as “did not increase intracellular Ca^2+”.

In the case of heparin, the “Increase of Ca2+ response by heparin pre-treatment” value is 40% at P2X7 receptor [1] (CHO-745, 10 μM ATP) and 50% at P2X7 receptor [1] (CHO-745, 1 mM ATP). The “Effect of heparin on Ca2+ influx at saturating agonist” value in the series on P2 receptors (BzATP >100 μM or ATP >4 mM) was “induced no further increase in Ca^2+ influx”. The “P2X7 stimulation by heparin alone” value in the series with P2 receptors (absence of ATP or BzATP, highest heparin concentration) was “did not elicit P2X7 stimulation; also recorded: did not elicit discernible P2X7 activation”. Further, the “Increase of Ca2+cyt response by heparin pre-treatment” value on P2X7 receptor [2] (CHO-K1, 10 μM ATP) is 120%; at P2X7 receptor [2] (CHO-K1, 1 mM ATP), 78%. For the same compound, on P2X7 receptor [2] (CHO-K1, 100 μM heparin, 3 μM BzATP), the “Potentiation of Ca2+ influx” value is listed as 2.2 fold.
